Data reported in patent US12594292B2, “Antiviral prodrugs, intermediate-and long-acting formulations and methods” (priority 2022, dated 2026).
Like-named read-outs stand apart in the source and are kept apart here.

Assays:
Calu-3 cells = assay: Cytotoxicity in Calu-3 cells, nuclei count or CellTiter-Glo (Example 6); settings: for select compounds up to 100 μM by CellTiter-Glo
Description: After which an equal volume of CellTiter-Glo reagent (Cat. #G7570, Promega, Madison, WI) was added, mixed and luminescence recorded on a Veritas Microplate Luminometer (Turner BioSystems) according to manufacturer recommendations.

SARS-CoV-2 [1] = assay: SARS-CoV-2 infection assay in Calu-3 cells, nucleocapsid immunofluorescence (Example 6); settings: MOI 0.01, 44 hour
HCoV-229E = type: cell-based, human Coronavirus 229E
SARS-CoV-2 [2] = assay: SARS-CoV-2 infection assay in Huh7.5 cells, nucleocapsid immunofluorescence (Example 6); type: cell-based; settings: MOI 0.1, 48 hours
Huh7.5 cells = assay: Cytotoxicity in Huh7.5 cells, nuclei count (Example 6); type: cell-based, human; settings: Huh7.5 cells; read-out: CC50
SARS-CoV-2 [3] = assay: SARS-CoV-2 infection assay in TMPRSS2-Vero cells, nucleocapsid immunofluorescence (Example 6); type: cell-based; settings: MOI 0.01, 32 hours
TMPRSS2-Vero cells = assay: Cytotoxicity in TMPRSS2-Vero cells, nuclei count (Example 6); type: cell-based; settings: TMPRSS2-Vero cells; read-out: CC50
human PBMCs = assay: Cytotoxicity (CC50) in human PBMCs; type: cell-based
HIV-1 = settings: for EC50: HIV infected human PBMCs
Description: Antiviral activities were determined in HIV infected human PBMCs.

HFF cells = assay: Persistence of TFVpp in HFF cells after a 3 day exposure
Description: HFF cells were exposed to 1 micromolar drug for 3 days. At days 0, 1, 2, 4, 7, 14, 21, and 28, cells were trypsinized, counted, and processed for LC/MS measurement of TFVpp. Data were expressed at ftg/cell. nm=not meaningful; ftg—gemtogram.

Calu 3 = assay: Antiviral evaluation of cyanobenzyl analogs, Calu 3; type: cell-based; settings: Calu 3
Huh7.5 = assay: Antiviral evaluation of cyanobenzyl analogs, Huh7.5; type: cell-based
[4] = variation of the diester substituent of ODE-TFV, read-out: CC50
[5] = variation of the diester substituent of ODE-TFV
[6] = HFF cells, 1 micromolar drug for 3 days

Molecule	CC50 (Calu-3 cells) [nM]	EC50 (SARS-CoV-2 [1]) [nM]	EC90 (SARS-CoV-2 [1]) [nM]	EC50 (HCoV-229E) [nM]	EC90 (HCoV-229E) [nM]	CC50 (MRC-5 cells) [nM]	EC50 (SARS-CoV-2 [2]) [nM]	EC90 (SARS-CoV-2 [2]) [nM]	CC50 (Huh7.5 cells) [nM]	EC50 (SARS-CoV-2 [3]) [nM]	EC90 (SARS-CoV-2 [3]) [nM]	CC50 (TMPRSS2-Vero cells) [nM]	other results
1-O-Octadecyl-2-O-(ethylcyclohexyl)-sn-glyceryl-phospho-RVn [Compound 15g]	> 20000	147 ± 32	1660 ± 798	–	–	–	–	–	–	–	–	–	–
2-(Octadecyloxy)ethyl benzyl phospho-RVn [Compound 6c]	–	–	–	220 ± 56	440 ± 85	> 50000	–	–	–	–	–	–	–
CCCCCCCCCCCCCCCCCCOCC(COP(=O)(O)OC[C@H]1O[C@@](C#N)(c2ccc3c(N)ncnn23)[C@H](O)[C@@H]1O)OCc1ccccc1 (mixture of isomers) [Compound 15e, 1-O-octadecyl-2-O-benzyl-rac-glyceryl-phospho-RVn]	> 20000	210 ± 62	763 ± 490	210 ± 4	350 ± 6	30900 ± 7700	163	514	> 20000	242	642	> 20000	–
CCCCCCCCCCCCCCCCCCOCCOP(=O)(CO[C@H](C)Cn1cnc2c(N)ncnc21)OCc1cccc(C)c1 (stereo partly shown) [3-methyl benzyl]	–	–	–	–	–	–	–	–	–	–	–	–	CC50 (human PBMCs; [4]): 3860 nM; Selectivity Index (HIV-1; [5]): 1210; EC50 (HIV-1; [5]): 3.2 nM
CCCCCCCCCCCCCCCCCCCCOP(=O)(O)OC[C@H]1O[C@](C#N)(c2ccc3c(N)ncnn23)[C@H](O)[C@@H]1O [Compound 4a, Eicosyl-phospho-RVn]	> 20000	178 ± 35	1320 ± 566	910	1800	> 50000	1410	4750	> 20000	1170	2180	> 20000	–
CCCCCCCCCCCCCCOC[C@H](COP(=O)(O)OC[C@H]1O[C@@](C#N)(c2ccc3c(N)ncnn23)[C@H](O)[C@@H]1O)OCc1ccccc1 [Compound 15a, 1-O-Tetradecyl-2-O-benzyl-sn-glyceryl-phospho-RVn]	> 20000	212 ± 25	536 ± 150	760 ± 340	3250	> 50000	156	493	> 20000	901	1690	> 20000	–
CCCCCCCCCCCCCCCCOC[C@H](COP(=O)(O)OC[C@H]1O[C@@](C#N)(c2ccc3c(N)ncnn23)[C@H](O)[C@@H]1O)OCc1ccccc1 [Compound 15b, 1-O-Hexadecyl-2-O-benzyl-sn-glyceryl-phospho-RVn]	88200 ± 8890	101 ± 20	623 ± 272	560 ± 270	980 ± 380	> 50000	130	309	> 20000	395	810	> 20000	–
CCCCCCCCCCCCCCCCCCOC[C@H](COP(=O)(O)OC[C@H]1O[C@@](C#N)(c2ccc3c(N)ncnn23)[C@H](O)[C@@H]1O)OCCCCCCCC [Compound 15f, 1-O-Octadecyl-2-O-octyl-sn-glyceryl-phospho-RVn]	> 20000	410 ± 60	2310 ± 738	120 ± 57	290 ± 58	> 50000	710	1710	> 20000	1330	2350	> 20000	–
CCCCCCCCCCCCCCCCCCOC[C@H](COP(=O)(O)OC[C@H]1O[C@@](C#N)(c2ccc3c(N)ncnn23)[C@H](O)[C@@H]1O)OCc1cccc(F)c1 [Compound 15h, 1-O-Octadecyl-2-O-(3-fluoro-benzyl)-sn-glyceryl-phospho-RVn]	> 20000	216 ± 62	548 ± 368	1400 ± 58	2800 ± 40	22900 ± 100	182	444	> 20000	270	629	> 20000	–
CCCCCCCC/C=C\CCCCCCCCOC[C@H](COP(=O)(O)OC[C@H]1O[C@@](C#N)(c2ccc3c(N)ncnn23)[C@H](O)[C@@H]1O)OCc1ccccc1 [Compound 15l, 1-O-Oleyl-2-O-benzyl-sn-glyceryl-phospho-RVn]	79000 ± 6950	198 ± 77	294 ± 93	130 ± 29	260 ± 3.7	> 50000	100	246	> 20000	295	568	> 20000	–
CCCCCCCCCCCCCCCCCCOC[C@@H](COP(=O)(O)OC[C@H]1O[C@@](C#N)(c2ccc3c(N)ncnn23)[C@H](O)[C@@H]1O)OCc1ccccc1 [Compound 15n, 3-O-Octadecyl-2-O-benzyl-sn-glyceryl-1-phospho-RVn]	> 20000	163 ± 22	623 ± 183	–	–	–	–	–	–	–	–	–	–
CCCCCCCCCCCCCCCCCCOC[C@H](COP(=O)(O)OC[C@H]1O[C@@](C#N)(c2ccc3c(N)ncnn23)[C@H](O)[C@@H]1O)OCc1cccc(C(F)(F)F)c1 [Compound 15o, 1-O-Octadecyl-2-O-(3-trifluoromethyl)benzyl-sn-glyceryl-phospho-RVn]	> 20000	166 ± 68	278 ± 109	160 ± 46	460 ± 270	16000 ± 2800	–	–	–	–	–	–	–
CCCCCCCCCCCCCCCCCCOC[C@H](COP(=O)(O)OC[C@H]1O[C@@](C#N)(c2ccc3c(N)ncnn23)[C@H](O)[C@@H]1O)OCc1ccc(C(F)(F)F)cc1 [Compound 15p, 1-O-Octadecyl-2-O-(4-trifluoromethyl)benzyl-sn-glyceryl-phospho-RVn]	–	–	–	–	330 ± 39	13900 ± 8800	–	–	–	–	–	–	–
CCCCCCCCCCCCCCCCCCOC[C@H](COP(=O)(OCc1ccccc1)OC[C@H]1O[C@@](C#N)(c2ccc3c(N)ncnn23)[C@H](O)[C@@H]1O)OCc1ccccc1 (stereo partly shown) [Compound 17, 1-O-Octadecyl-2-O-benzyl-sn-glyceryl-benzyl-phospho-RVn]	> 20000	5320 ± 1390	10900 ± 5480	1500 ± 930	4270 ± 880	> 50000	3540	16400	> 20000	7440	15300	> 20000	–
CCCCCCCCCCCCCCCCCCOC[C@H](COP1(=O)OC[C@H]2O[C@@](C#N)(c3ccc4c(N)ncnn34)[C@H](O)[C@@H]2O1)OCc1ccccc1 (stereo partly shown) [Compound 18-eq, GS-441524-3′,5′-cyclic monophosphate, 1-O-octadecyl-2-O-benzyl-sn-glyceryl ester]	> 20000	> 20000	> 20000	–	–	–	–	–	–	–	–	–	–
CCCCCCCCCCCCCCCCCCOCCOP1(=O)OCC2OC(C#N)(c3ccc4c(N)ncnn34)C(O)C2O1 (stereo not shown) [Compound 19-ax]	> 20000	8150 ± 8420	> 20000	–	–	–	–	–	–	–	–	–	–
CCCCCCCCCCCCCCCCCCOCCO[P@]1(=O)OC[C@H]2O[C@](C#N)(c3ccc4c(N)ncnn34)[C@H](O)[C@@H]2O1 [Compound 19-eq]	> 20000	2760 ± 808	19200 ± 12700	–	–	–	–	–	–	–	–	–	–
CCCCCCCCCCCCCCCCOCCCOP(=O)(CO[C@H](C)Cn1cnc2c(N)ncnc21)OCc1ccccc1 (stereo partly shown) [HDP-Bn-TFV]	–	–	–	–	–	–	–	–	–	–	–	–	T1/2 of TFVpp (HFF cells): 1.8; Tmax of TFVpp (HFF cells): 0 h
CCCCCCCCCCCCCCCCCCOC[C@H](COP(=O)(O)OC[C@H]1O[C@@](C#N)(c2ccc3c(N)ncnn23)[C@@H](O)C1O)OCc1ccc(C#N)cc1 (stereo partly shown) [OD(4-CN-Bn)G-P-RVn, 1-O-Octadecyl-2-O-(4-cyanobenzyl)-sn-glyceryl-phospho-RVn]	–	–	–	–	–	–	–	–	–	–	–	–	SI (Calu 3): 1400; EC50 (Calu 3; read-out: EC50): 43 ± 13 nM; EC90 (Calu 3; read-out: EC90): 82 ± 22 nM; SI (Huh7.5): 1966; EC50 (Huh7.5; read-out: EC50): 24 ± 2 nM; EC90 (Huh7.5; read-out: EC90): 70 ± 10 nM
CCCCCCCCCCCCCCCCCCOCCOP(=O)(CO[C@H](C)Cn1cnc2c(N)ncnc21)OCc1ccc(C)cc1 (stereo partly shown) [ODE-4MeBN-TFV]	–	–	–	–	–	–	–	–	–	–	–	–	CC50 (human PBMCs): 3410 nM; T1/2 of TFVpp (HFF cells): 3.1; Tmax of TFVpp (HFF cells): 0 h; Selectivity Index (HIV-1; [5]): 1620; EC50 (HIV-1; [5]): 2.1 nM
CCCCCCCCCCCCCCCCCCOCCOP(=O)(CO[C@H](C)Cn1cnc2c(N)nc(N)nc21)OCc1ccccc1 (stereo partly drawn) [ODE-Bn-PMPDAP, Octadecyloxyethyl benzyl 9-(R)-[(2-phosphonomethoxy)propyl]-2,6-diaminopurine]	–	–	–	–	–	–	–	–	–	–	–	–	EC50 (HIV-1): active
CCCCCCCCCCCCCCCCCCOCCOP(=O)(CO[C@H](C)Cn1cnc2c(N)ncnc21)OCC (stereo partly shown) [ODE-Et-TFV]	–	–	–	–	–	–	–	–	–	–	–	–	CC50 (human PBMCs; [4]): 5360 nM; Cmax of TFVpp (HFF cells; [6]): 0.91 ftg/cell; Tmax of TFVpp (HFF cells; [6]): 0 h; Selectivity Index (HIV-1; [5]): 95; EC50 (HIV-1; [5]): 57 nM
CCCCCCCCCCCCCCCCCCOCCOP(=O)(O)CO[C@H](C)Cn1cnc2c(N)nc(N)nc21 [ODE-PMPDAP]	–	–	–	–	–	–	–	–	–	–	–	–	CC50 (human PBMCs; human PBMCs, read-out: CC50): 7000 ± 7100 nM; Selectivity Index (HIV-1; CC50/EC50): 77,700; EC50 (HIV-1): 0.09 ± 0.05 nM
CCCCCCCC/C=C\CCCCCCCCOCCOP(=O)(CO[C@H](C)Cn1cnc2c(N)nc(N)nc21)OCc1ccccc1 (stereo partly drawn) [OLE-Bn-PMPDAP, Oleyloxyethyl benzyl 9-(R)-[(2-phosphonomethoxy)propyl]-2,6-diaminopurine]	–	–	–	–	–	–	–	–	–	–	–	–	EC50 (HIV-1): active
